In ChEMBL document CHEMBL1123125, “Sulfur-interrupted 8-amino side chain analogues of 4-methyl-5-[m-(trifluoromethyl)phenoxy]primaquine as potential antimalarial agents” (1985):

Legend:
Format in all cases: functional
Mus musculus [1] = assay: Evaluated for number of toxic deaths occurring on day 2-5 after infection with Plasmodium berghei in mice (Mus musculus) at dose 640 mg/kg
Mus musculus [2] = assay: Evaluated for the change in mean survival time over controls against Plasmodium berghei in mice (Mus musculus) at dose 640 mg/kg
Mus musculus [3] = assay: Evaluated for number of toxic deaths against Plasmodium berghei yoelii in mice (Mus musculus) at subcutaneous dose of 40 mg/kg
Mus musculus [4] = assay: Evaluated for number of cures against Plasmodium berghei yoelii in rodents at peroral dose 2.5 mg/kg; 0/5; conditions: route oral
Mus musculus [5] = assay: Evaluated for the change in mean survival time over controls against Plasmodium berghei in mice (Mus musculus) at dose 80 mg/kg
Mus musculus [6] = assay: Evaluated for number of cures against Plasmodium berghei yoelii in rodents at subcutaneous dose 160 mg/kg; 8/30
Mus musculus [7] = assay: Evaluated for the change in mean survival time over controls against Plasmodium berghei in mice (Mus musculus) at dose 40 mg/kg
Mus musculus [8] = assay: Evaluated for number of cures against Plasmodium berghei yoelii in rodents at peroral dose 10 mg/kg; 2/20; conditions: route oral
Mus musculus [9] = assay: Evaluated for the change in mean survival time over controls against Plasmodium berghei in mice (Mus musculus) at dose 20 mg/kg
Plasmodium cynomolgi [10] = assay: Relapses in Plasmodium cynomolgi infected Rhesus monkeys (Macaca mulatta) at 0.1 mg/kg dose
Mus musculus [11] = assay: Evaluated for number of toxic deaths against Plasmodium berghei yoelii in rodents at subcutaneous dose of 160 mg/kg
Plasmodium cynomolgi [12] = assay: Number of relapses in Plasmodium cynomolgi infected Rhesus monkeys (Macaca mulatta) at 1.0 mg/kg dose
Mus musculus [13] = assay: Evaluated for number of cures against Plasmodium berghei in mice (Mus musculus) (surviving 60 days) at dose 640 mg/kg
Plasmodium cynomolgi [14] = assay: Cures in Plasmodium cynomolgi infected Rhesus monkeys (Macaca mulatta) at 0.1 mg/kg dose; Cured 0 of 2
Mus musculus [15] = assay: Evaluated for number of cures against Plasmodium berghei yoelii in mice (Mus musculus) at peroral dose 160 mg/kg; 19/20; conditions: route oral
Mus musculus [16] = assay: Evaluated for number of cures against Plasmodium berghei yoelii in rodents at subcutaneous dose 10 mg/kg; 5/30
Mus musculus [17] = assay: Evaluated for number of cures against Plasmodium berghei in mice (Mus musculus) (surviving 60 days) at dose 320 mg/kg
Plasmodium cynomolgi [18] = assay: Number of relapses in Plasmodium cynomolgi infected Rhesus monkeys (Macaca mulatta) at 0.316 mg/kg dose
Mus musculus [19] = assay: Evaluated for number of cures against Plasmodium berghei yoelii in rodents at subcutaneous dose 2.5 mg/kg; 0/5
Mus musculus [20] = assay: Evaluated for the change in mean survival time over controls against Plasmodium berghei in mice (Mus musculus) at dose 320 mg/kg
Plasmodium cynomolgi [21] = assay: Cures in Plasmodium cynomolgi infected Rhesus monkeys (Macaca mulatta) at 1.0 mg/kg dose; Cured 1 of 2
Mus musculus [22] = assay: Evaluated for number of cures against Plasmodium berghei yoelii in rodents at peroral dose 40 mg/kg; 7/20; conditions: route oral
Mus musculus [23] = assay: Evaluated for number of cures against Plasmodium berghei yoelii in rodents at subcutaneous dose 40 mg/kg; 7/30
Plasmodium cynomolgi [24] = assay: Cures against Plasmodium cynomolgi infected Rhesus monkeys (Macaca mulatta) at 0.316 mg/kg dose; cured 0 of 2
Mus musculus [25] = assay: Evaluated for the change in mean survival time over controls against Plasmodium berghei in mice (Mus musculus) at dose 160 mg/kg
Mus musculus [26] = assay: Evaluated for number of cures against Plasmodium berghei yoelii in mice (Mus musculus) at peroral dose 40 mg/kg; 0/5; conditions: route oral
Mus musculus [27] = assay: Evaluated for number of cures against Plasmodium berghei yoelii in rodents at subcutaneous dose 160 mg/kg; 5/15
Mus musculus [28] = assay: Evaluated for number of cures against Plasmodium berghei yoelii in mice (Mus musculus) at subcutaneous dose 40 mg/kg; 1/15
Mus musculus [29] = assay: Evaluated for number of cures against Plasmodium berghei yoelii in rodents at peroral dose 10 mg/kg; 0/5; conditions: route oral
Mus musculus [30] = assay: Evaluated for number of cures against Plasmodium berghei yoelii in mice (Mus musculus) at subcutaneous dose 10 mg/kg; 0/15
Plasmodium cynomolgi [31] = assay: Cures against Plasmodium cynomolgi infected Rhesus monkeys (Macaca mulatta) at 1.0 mg/kg; cured 0 of 2
Mus musculus [32] = assay: Evaluated for number of cures against Plasmodium berghei yoelii in mice (Mus musculus) at peroral dose 160 mg/kg; Number of tested 5; conditions: route oral
Mus musculus [33] = assay: Evaluated for number of cures against Plasmodium berghei in mice (Mus musculus) (surviving 60 days) at dose 20 mg/kg
Mus musculus [34] = assay: Evaluated for number of cures against Plasmodium berghei in mice (Mus musculus) (surviving 60 days) at dose 160 mg/kg
Plasmodium cynomolgi [35] = assay: Cures in Plasmodium cynomolgi infected Rhesus monkeys (Macaca mulatta) at 0.1 mg/kg dose; Cured 0 of 1
Mus musculus [36] = assay: Evaluated for number of cures against Plasmodium berghei in mice (Mus musculus) (surviving 60 days) at dose 80 mg/kg
Mus musculus [37] = assay: Evaluated for number of cures against Plasmodium berghei in mice (Mus musculus) (surviving 60 days) at dose 5 mg/kg
Plasmodium cynomolgi [38] = assay: Cures in Plasmodium cynomolgi infected Rhesus monkeys (Macaca mulatta) at 1.0 mg/kg dose; Cures 2 of 2
Plasmodium cynomolgi [39] = assay: Cures in Plasmodium cynomolgi infected Rhesus monkeys (Macaca mulatta) at 0.316 mg/kg dose; Cured 2 of 2
Mus musculus [40] = assay: Evaluated for number of cures against Plasmodium berghei in mice (Mus musculus) (surviving 60 days) at dose 10 mg/kg
Mus musculus [41] = assay: Evaluated for number of cures against Plasmodium berghei in mice (Mus musculus) (surviving 60 days) at dose 40 mg/kg
Mus musculus [42] = assay: Evaluated for number of toxic deaths occurring on day 2-5 after infection with Plasmodium berghei in mice (Mus musculus) at dose 320 mg/kg
Mus musculus [43] = assay: Evaluated for number of toxic deaths occurring on day 2-5 after infection with Plasmodium berghei in mice (Mus musculus) at dose 160 mg/kg

For `COc1cc(NC(C)CSCCN)c2nccc(C)c2c1Oc1cccc(C(F)(F)F)c1` (configuration not stated), the No. of deaths (Mus musculus [1]) was 1, the “Change in MST” value (Mus musculus [2]) was 12.3 and the No. of deaths (Mus musculus [3]) was 2. For the same compound, the No. of cures (Mus musculus [4]) was 0, the “Change in MST” value (Mus musculus [5]) was 6.6 and the No. of cures (Mus musculus [6]) was 8. For the same compound, the “Change in MST” value (Mus musculus [7]) was 2, the No. of cures (Mus musculus [8]) was 2 and the “Change in MST” value (Mus musculus [9]) was 3. The No. of relapses (Plasmodium cynomolgi [10]) was 8, the No. of deaths (Mus musculus [11]) was 3 and the No. of relapses (Plasmodium cynomolgi [12]) was 18. It also gave a No. of cures (Mus musculus [13]) of 2, a No. of cures (Plasmodium cynomolgi [14]) of 0 and a No. of cures (Mus musculus [15]) of 19. The No. of cures (Mus musculus [16]) was 5, the No. of cures (Mus musculus [17]) was 1 and the No. of relapses (Plasmodium cynomolgi [18]) was 28. The No. of cures (Mus musculus [19]) was 0, the “Change in MST” value (Mus musculus [20]) was 9.6 and the No. of cures (Plasmodium cynomolgi [21]) was 1. For the same compound, the No. of cures (Mus musculus [22]) was 7, the No. of cures (Mus musculus [23]) was 7 and the No. of cures (Plasmodium cynomolgi [24]) was 0. The “Change in MST” value (Mus musculus [25]) was 6.8.
`COc1cc(NCC(C)SCCN)c2nccc(C)c2c1Oc1cccc(C(F)(F)F)c1` (configuration not stated) was tested, and the No. of cures (Mus musculus [26]) was 0, the “Change in MST” value (Mus musculus [2]) was 9.7 and the No. of deaths (Mus musculus [3]) was 1. The “Change in MST” value (Mus musculus [5]) was 1.5, the “Change in MST” value (Mus musculus [7]) was 0.5 and the No. of cures (Mus musculus [27]) was 5. It also gave a No. of relapses (Plasmodium cynomolgi [10]) of 7, a No. of deaths (Mus musculus [11]) of 1 and a No. of relapses (Plasmodium cynomolgi [12]) of 7. The No. of cures (Plasmodium cynomolgi [14]) was 0, the No. of cures (Mus musculus [28]) was 1 and the No. of cures (Mus musculus [17]) was 1. The No. of cures (Mus musculus [29]) was 0, the No. of cures (Mus musculus [30]) was 0 and the No. of cures (Plasmodium cynomolgi [31]) was 0. For the same compound, the “Change in MST” value (Mus musculus [20]) was 6.5, the No. of cures (Mus musculus [32]) was 0 and the “Change in MST” value (Mus musculus [25]) was 4.5.
For `COc1cc(NC(C)CCCN)c2nccc(C)c2c1Oc1cccc(C(F)(F)F)c1` (configuration not stated), the No. of deaths (Mus musculus [1]) was 4, the No. of cures (Mus musculus [33]) was 5 and the No. of cures (Mus musculus [34]) was 5. It also gave a No. of cures (Plasmodium cynomolgi [35]) of 0, a No. of cures (Mus musculus [36]) of 5 and a No. of cures (Mus musculus [13]) of 1. The No. of cures (Mus musculus [37]) was 1, the No. of cures (Plasmodium cynomolgi [38]) was 2 and the No. of cures (Mus musculus [17]) was 5. The No. of cures (Plasmodium cynomolgi [39]) was 2, the No. of cures (Mus musculus [40]) was 3 and the No. of cures (Mus musculus [41]) was 5.
`COc1cc(NC(C)CCCN)c2ncccc2c1` (configuration not stated) [PRIMAQUINE] was tested, and the No. of deaths (Mus musculus [1]) was 5, the “Change in MST” value (Mus musculus [5]) was 9 and the No. of deaths (Mus musculus [42]) was 5. It also gave a No. of cures (Plasmodium cynomolgi [14]) of 0, a No. of deaths (Mus musculus [43]) of 2 and a No. of cures (Plasmodium cynomolgi [21]) of 1. It also gave a No. of cures (Plasmodium cynomolgi [24]) of 0.
